# Results taken from ChEMBL document CHEMBL1157294, “Rautandiols A and B, pterocarpans and cytotoxic constituents from Neorautanenia mitis” (J Nat Prod, 2006).
# Key:
# MCF7 = experiment: Cytotoxicity against human MCF7 cells after 3 days by SRB assay; format: functional, cell-based; details: MCF7, 72 h
# A549 = experiment: Cytotoxicity against human A549 cells after 3 days by SRB assay; format: functional, cell-based; details: A549, 72 h
SMILES,IC50 (MCF7),IC50 (A549)
c1cc2cc3c(cc2o1)OC[C@H]1c2cc4c(cc2O[C@@H]31)OCO4 [NEODULIN],> 5 µg/mL,> 5 µg/mL
COc1cc2c(cc1-c1cc3cc4ccoc4cc3oc1=O)OCO2 [PACHYRRIZINE],3.6 µg/mL,> 5 µg/mL
COc1cc(OC)c(-c2coc3cc4occc4cc3c2=O)cc1OC [ISOELLIPTOL],0.8 µg/mL,1.6 µg/mL
C=C(C)[C@H]1Cc2c(ccc3c2O[C@@H]2COc4cc(OC)c(OC)cc4[C@@H]2C3=O)O1 [ROTENONE],0.008 µg/mL,0.04 µg/mL
CC(C)(O)C1Cc2cc3c(cc2O1)OC[C@H]1c2ccc(O)cc2O[C@@H]31 (some centres undefined) [RAUTANDIOL B],> 5 µg/mL,> 5 µg/mL
C=C(C)[C@H]1Cc2c(ccc3c(=O)c4c(oc23)COc2cc(OC)c(OC)cc2-4)O1 [DEHYDROROTENONE],> 5 µg/mL,> 5 µg/mL
CC1(C)Oc2cc3c(cc2CC1O)[C@@H]1Oc2cc(O)ccc2[C@@H]1CO3 (some centres undefined) [RAUTANDIOL A],> 5 µg/mL,> 5 µg/mL
